Structures can show the parent of a compound that is named as a salt. Marks after values point to notes of the source that are not given here.
How the values were obtained:
Type in all cases: in vivo, rat
[1] = test system: animals with hypobaric hypoxia-induced amnesia; test: Step-through passive avoidance, hypobaric hypoxia-induced amnesia; conditions: for Latency: hypobaric hypoxia, median latency to re-enter dark box, max 300 s
Protocol: (§1) Male rats of the Sprague-Dawley strain (purchased from Charles River, Italy) weighing 280±20 g were used throughout all experiments. The animals were housed two-three to a cage under a constant light-dark cycle (lights on between 8.00 and 20.00) at 21° C. Commercial food and tap water were available ad libitum. All animals were used only once in the behavioral experiments.
(§2) Ropinirole (ropinirole hydrochloride, SmithKline Beecham, Italy) and dihydroergocryptine (DHECP) α-dihydroergocryptine methanesulfonate, Monsanto, Italy) were dissolved in saline and injected subcutaneously (s.c.) at the dose of 0.5 and 1 mg/kg/day for 7 days. In the experiments with kainate-induced convulsions, ropinirole or DHECP were injected intravenously (i.v.) 30 min prior, and again at the same time of the intracerebroventricular (i.c.v) injection on kainic acid; Control animals received an injection of saline alone with the same procedure.
Passive avoidance behaviour was studied in a step-through type of passive avoidance situation (Ader et al., Psycon Sci, 26, 125-128 (1972)). Briefly the rats were adapted to the apparatus consisting of a large dark compartment equipped with a grid floor and a mesh-covered elevated runway attached to the front centre of the dark chamber. Adaptation training was followed by a single trial in which the rats were placed on the elevated platform and allowed to enter the dark box. Three such trials were given on the next day with an intertrial interval of 5 min after the trial. The rats received a single 2-s unavoidable scrambled foot-shock (0.20 mA) immediately after entering the dark compartment. Retention of the response was tested 24 h after the learning trial. The rats were placed on the elevated runway and the latency to re-enter the shock compartment was recorded up to a maximum of 300 s.
(§3) In the first experiment, the effects of ropinirole or DHECP were studied on amnesia induced by hypobaric hypoxia in rats. After a 7-day pretreatment with ropinirole, DHECP or saline, a group of animals was subjected to acute hypobaric hypoxia by means of a hypobaric chamber (Chantiers et Ateliers de Bretagne, France) causing depression to 300 mmHg (Boismare et al., Gerentology, 24, 6-13 (1978)). After 3 min in the chamber, the animals were removed and admitted for behavioral testing. Intact control rats were also introduced into the chamber but not subjected to hypobaric hypoxia.

kainate-induced epilepsy = test: Kainate-induced convulsions (epilepsy); conditions: for Latency (s) to the first tonic-clonic seizure / Seizures (total number) / Mortality (%): kainic acid 10 μg/2 μl i.c.v.; for Latency (s) to the first tonic-clonic seizure / Seizures (total number): 30-min observation, mean ± S.E.M.; for Mortality (%): checked 2 h after convulsive agent
Protocol: as §1
Another group of animals were implanted under ether anaesthesia with a permanent plastic cannula in the right lateral ventricle (foramen interventriculare, Konig and Klippel A 6360) with another cannula into the right jugular vein. These animals were sacrificed at the end of behavioral procedure and the brains were utilized for biochemical analysis. Data were taken from animals showing no abnormalities at the postmortem examination. All experiments were carried out according to the European Community Council Directive 86/609/ECC and efforts were made to minimize animal suffering and to reduce the number of animals used.
as §2, with “[…],” for “ropinirole or DHECP were injected intravenously (i.v.) 30 min prior,”
Kainic acid (Sigma, USA) was dissolved in saline and injected i.c.v. at the dose of 10 μg/2 μi.
Over a 30-min observation, the following items were recorded per each animal receiving an i.c.v. injection of kainic acid: latency in s to the first tonic-clonic seizure; total number of seizures, percent rate of mortality (checked 2 h after the administration of the convulsive agent).
Behavioral scoring of kainate-induced convulsions was started immediately after i.c.v. injection of the drug and proceeded for 30 min. Ropinirole, DHECP or saline were injected twice, 30 min prior and, again, at the same time of the i.c.v. administration of kainic acid.

[2] = test system: animals with hypobaric hypoxia-induced amnesia; test: Open field spontaneous motor activity, hypobaric hypoxia; conditions: vs intact controls and saline-treated hypoxic animals
Protocol: as §1, §2
Spontaneous motor activity was scored in a circular open field arena as described by Weijnen and Slangen, Pituitary, Adrenal and the Brain, pp221-235 (1982). Animals were put inside a circular lit-up arena, with the bottom divided into 27 areas of equal size.
as §3

[3] = test system: animals with hypobaric hypoxia-induced amnesia; test: Shuttle-box active avoidance acquisition, hypobaric hypoxia-induced amnesia; conditions: for Learners / CARs: hypobaric hypoxia; for CARs: mean ± S.E.M.
Protocol: as §1, §2
Shuttle-box active avoidance acquisition was studied in a single session test as described in Bohus and De Wied, Endogenous Peptides and Learning and Memory Processes. Academic Press, New York, pp59-775, (1981). Briefly, the rats were trained to avoid the unconditioned stimulus (US) of a scrambled electrical foot-shock (0.20 mA) delivered through the grid floor. The conditioned stimulus (CS) was a buzzer presented for 3 s prior to the US. If no escape occurred within 20 s of CS/US presentation, the shock was terminated. A maximum of 30 conditioning trials were given with a variable intertrial interval averaging 60 s. The learning criterion was five consecutive conditioned avoidance responses (CARs). For those animals that reached the criterion in less than 30 trials, the remaining trials until 30 were considered as CARs. Indexes of avoidance behaviour were the total number of CARs and the percent number of learners per group.
as §3

[4] = hypobaric hypoxia-induced amnesia, summary of Table 1
[5] = kainate-induced seizures, summary of Table 3

CCCN(CCC)CCc1cccc2c1CC(=O)N2 [ROP, 4-[2-(di-n-propylamino)ethyl]-1,3-dihydro-2H-indolin-2-one hydrochloride] was tested, and the “latency to re-enter the dark box (effect of treatment, in words)” value [1, 4] was “increase”, the Latency ([1]; 0.5 mg/kg/day s.c. for 7 days) was 47^e,f and the Latency ([1]; 1 mg/kg/day s.c. for 7 days) was 65^f. For the same compound, the “latency to the first tonic-clonic seizure (effect of treatment, in words)” value (kainate-induced epilepsy; [5]) was “did not modify”, the “percent mortality rate (effect of treatment, in words)” value (kainate-induced epilepsy; [5]) was “significant decrease” and the “total number of kainate-induced seizures (effect of treatment, in words)” value (kainate-induced epilepsy; [5]) was “did not modify”. The “Latency (s) to the first tonic-clonic seizure” value (kainate-induced epilepsy; 0.5 mg/kg injected s.c. twice (30 min prior and at kainic acid)) was 69.4 ± 8.9 s, the “Seizures (total number)” value (kainate-induced epilepsy; 0.5 mg/kg injected s.c. twice) was 7.1 ± 0.9 and the “Mortality (%)” value (kainate-induced epilepsy; 0.5 mg/kg injected s.c. twice) was 20^a %. The “Latency (s) to the first tonic-clonic seizure” value (kainate-induced epilepsy; 1 mg/kg injected s.c. twice (30 min prior and at kainic acid)) was 65.4 ± 6.9 s, the “Seizures (total number)” value (kainate-induced epilepsy; 1 mg/kg injected s.c. twice) was 6.9 ± 0.9 and the “Mortality (%)” value (kainate-induced epilepsy; 1 mg/kg injected s.c. twice) was 10^a %. The “ambulation and rearing (effect of treatment, in words)” value [2] was “higher”, the “number of CARs and percent number of learners in the shuttle-box (effect of treatment, in words)” value [3, 4] was “increase” and the Learners ([3]; 0.5 mg/kg/day s.c. for 7 days) was 60^d percent. For the same compound, the CARs ([3]; 0.5 mg/kg/day s.c. for 7 days) was 16.8 ± 1.3^b, the Learners ([3]; 1 mg/kg/day s.c. for 7 days) was 70^d percent and the CARs ([3]; 1 mg/kg/day s.c. for 7 days) was 17.2 ± 1.5^b.
